Test system: hedgehog response pathway
Assay: Hh pathway response in neuralized embryoid bodies from Ptch1-/-;Ptch2-/- mESCs
Format: cell-based, murine
Conditions: Ptch1-/-;Ptch2-/- mESCs differentiated into NEBs; agent added exogenously
Description: In the absence of Ptch1, Ptch2 can mediate some measure of the Shh response. Given the contribution of both Ptch1 and Ptch2 to the interpretation of the Shh signal, it was reasoned that a Ptch1^−/−;Ptch2^−/− genetic background was essential to assess the aggregate contribution of Ptch1/2 to Shh signaling. […] The Ptch1^−/−;Ptch2^−/−;Shh^−/− assessed here have a LacZ under the control of the Ptch1 promoter (Goodrich et al., Science. 1997, 277:1109-1113). Since the upregulation of Ptch1 is a common response to the activation of the Hh response pathway, induction of LacZ in NEBs was assessed. A strong induction of LacZ was observed after three days into the differentiation protocol, consistent with the ventral identity observed using neural markers.

Question: Which “induction of the hedgehog response pathway” value does the source give for `CNC1CCC(N(Cc2cccc(-c3ccncc3)c2)C(=O)c2sc3ccccc3c2Cl)CC1` (stereo not shown) [SAG] here?
Answer: could not be further induced
